{
  "source": "patent US8506926B2",
  "about": "“[18F]-furanosylpurine derivatives and uses thereof” (priority 2003, dated 2013)",
  "key": {"[1]": {"tested_on": "human colon tumor xenografts", "settings": "Carson; Takahashi; cited from earlier work"}, "[2]": {"assay": "Micro-PET imaging studies", "type": "in vivo", "settings": "for micro-PET image findings: 30 minutes, 1 hour and 2 hours post-injection; for wash out of activity with time (micro-PET): up to 2 hours post-injection", "experimental": "PET imaging was performed using a Micro-PET scanner (Concorde Microsystems, Inc.), with 120 transaxial planes and spatial resolution of 2.0 mm, at 30 minutes, 1 hour and 2 hours post-injection. Images were reconstructed using Ordered Subset Expectation Maximization (OSEM) algorithm."}, "[3]": {"settings": "mouse, in vivo"}, "[4]": {"assay": "Blood clearance after intravenous injection", "type": "in vivo, athymic nude mice", "settings": "blood samples 1-120 minutes after i.v. injection", "experimental": "Activity injected into each mouse was measured in a dose calibrator (Capintec). […] Activity in each blood sample was measured by a gamma counter, standardized for injected dose, and % injected dose per gram was calculated. Mean % injected dose per gram was plotted against time to obtain the blood clearance curve for each compound. Animals were anesthetized with Nembutal (40 mg/kg) and sacrificed at 2 hours post-injection. All organs including tumor were separated and weighed. Radioactivity in each organ was measured using a gamma counter. For each mouse, radioactivity uptake was expressed as % injected dose per gram, and as ratio of organ to blood uptake."}, "[5]": {"target": "T1, herpes simplex virus thymidine kinase (HSV-tk) (Human herpesvirus 1, UniProt P0DTH5)", "T1 construct": "expressed in transfected cells", "T1 sequence (P0DTH5 whole entry)": "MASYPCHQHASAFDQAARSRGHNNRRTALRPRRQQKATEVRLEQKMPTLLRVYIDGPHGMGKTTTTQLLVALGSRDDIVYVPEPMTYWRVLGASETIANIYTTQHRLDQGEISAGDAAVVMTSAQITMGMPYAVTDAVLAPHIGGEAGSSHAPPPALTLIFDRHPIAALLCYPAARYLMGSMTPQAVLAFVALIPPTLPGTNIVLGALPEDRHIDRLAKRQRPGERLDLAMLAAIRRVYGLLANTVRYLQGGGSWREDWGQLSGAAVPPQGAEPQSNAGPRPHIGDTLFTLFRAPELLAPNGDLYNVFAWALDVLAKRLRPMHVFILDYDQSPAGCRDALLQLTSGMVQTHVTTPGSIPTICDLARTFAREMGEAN", "assay": "Tumor uptake in HSV-tk transduced versus wild type tumors on the same animal", "type": "in vivo", "settings": "tumor uptake in transduced and wild type cells comparable"}, "[6]": {"settings": "cited from earlier work"}},
  "data": [
    {"smiles": "Nc1nc(Cl)nc2c1ncn2[C@@H]1O[C@H](CO)[C@@H](O)[C@@H]1F", "note": "[2′-deoxy-2′-fluoro-2-chloro-9-β-D-arabinofuranosyladenine]", "values": [
      {"measurement": "activity against human colon tumor xenografts", "setting": "[1]", "result": "active"}
    ]},
    {"smiles": "Nc1ncnc2c1ncn2[C@@H]1O[C@H](CO)[C@@H](O)[C@@H]1[18F]", "note": "[[^18F]-FAA, 2′-deoxy-2′-[^18F]-fluoro-9-β-D-arabinofuranosyladenine]", "values": [
      {"measurement": "micro-PET image findings", "setting": "[2]", "result": "high uptake in spleen"},
      {"measurement": "wash out of activity with time (micro-PET)", "setting": "[2]", "result": "wash out of activity with time was minimal"},
      {"measurement": "Uptake in kidney", "setting": "[3]", "result": 3.5, "unit": "%"},
      {"measurement": "Uptake in liver", "setting": "[3]", "result": 2.4, "unit": "%"},
      {"measurement": "tissue of highest uptake", "setting": "[3]", "result": "spleen"},
      {"measurement": "tumor uptake compared to the background activity", "setting": "[3]", "result": "more than 3 fold"},
      {"measurement": "uptake in tumors compared to blood", "setting": "[3]", "result": 3.3, "unit": "fold"},
      {"measurement": "blood clearance pattern", "setting": "[4]", "result": "clear rapidly from the blood initially, then slow down after 20 minutes post-injection"},
      {"measurement": "substrate for HSV-tk", "setting": "[5]", "result": "not a substrate for HSV-tk"}
    ]},
    {"smiles": "Nc1ncnc2c1ncn2[C@@H]1O[C@H](CO)[C@H]([18F])[C@H]1O", "note": "[[^18F]-FXA, 3′-deoxy-3′-[^18F]-fluoro-9-β-D-xylofuranosyladenine]", "values": [
      {"measurement": "micro-PET image findings", "setting": "[2]", "result": "activity is in the heart"},
      {"measurement": "wash out of activity with time (micro-PET)", "setting": "[2]", "result": "did not wash out in 2 hours post-injection"},
      {"measurement": "tissue of highest uptake", "setting": "[3]", "result": "heart"},
      {"measurement": "tumor/blood ratio", "setting": "[3]", "result": "less than 1"},
      {"measurement": "blood clearance pattern", "setting": "[4]", "result": "clear rapidly from the blood initially, then slow down after 20 minutes post-injection"}
    ]},
    {"smiles": "Nc1nc(=O)n([C@@H]2O[C@H](CO)[C@@H](O)[C@@H]2F)cc1[125I]", "note": "[[^125I] labeled FIAC, [^125I]-2′-fluoro-5-iodo-1-β-D-arabinofuranosylcytosine]", "values": [
      {"measurement": "deiodination in vivo", "setting": "[6]", "result": "extensive deiodination in vivo"}
    ]}
  ]
}
